Measurements published in article PMC11722285, “Exploring the Potential of Malvidin and Echiodinin as Probable Antileishmanial Agents Through In Silico Analysis and In Vitro Efficacy” (Molecules, 2025).

Assays:
Type in all cases: cell-based
[1] = Cytotoxicity assay in macrophages (MTT); details: mouse, murine macrophages, mean ± SD
Experimental: Cytotoxicity was evaluated ex vivo in murine macrophages and human red blood cells, for which concentrations inhibiting 50% of macrophages (CC50) and red blood cells (RBC50) were determined. […] Cells were incubated in RPMI 1640 medium for 48 h (murine macrophages) or 1 h (red blood cells) at 37 °C in 5% CO2. Macrophage viability was assessed using the MTT method. The red blood cell suspension was centrifuged at 1000× g for 10 min at 4 °C, after which the percentage of cell lysis was evaluated spectrophotometrically at 570 nm. The hemolysis was determined by replacing the natural products with an equal volume of phosphate-buffered saline with a pH of 7.4 (PBS—negative control) or distilled water (positive control). CC50 and RBC50 values were calculated by sigmoidal regression of dose–response curves in Microsoft Excel software (version 10.0). SI was calculated as the ratio between CC50 and IC50 values.

[2] = tested on: L. amazonensis-infected murine macrophages; assay: Treatment of infected macrophages; details: 48 h
Experimental: (§1) To evaluate the efficacy of malvidin or echioidinin for treating infected macrophages, murine cells (5 × 10^5) were plated on round glass coverslips in 24-well plates in RPMI 1640 medium supplemented with 20% (v/v) FBS and 20 mM L-glutamine at a pH of 7.4 and incubated for 24 h at 37 °C in 5% CO2. Stationary promastigotes were added to the wells at a ratio of 10 parasites per macrophage, and cultures were incubated further for 48 h at 37 °C for 5% CO2. Free parasites were removed by extensive washing with RPMI 1640 medium, and infected macrophages were treated with malvidin (30.18, 60.37, and 120.74 µM), echioidinin (35.18, 70.36, and 140.72 µM), or AmpB (2.70 and 5.41 µM) for 48 h at […] in 5% CO2. After fixation with 4% paraformaldehyde, cells were washed and stained with Giemsa, and the infection percentage, the number of amastigotes per infected macrophage, and the reduction in the infection percentage were determined by counting 200 cells in triplicate, using an optical microscope.

[3] = tested on: L. infantum-infected murine macrophages; assay: Treatment of infected macrophages; details: 48 h
Experimental: as §1

[4] = tested on: L. braziliensis-infected murine macrophages; assay: Treatment of infected macrophages; details: 48 h
Experimental: as §1

[5] = tested on: O+ human red blood cells; assay: Hemolytic activity; details: lysis of 50% of O+ human red blood cells; 1 h; mean ± SD
Experimental: Cytotoxicity was evaluated ex vivo in murine macrophages and human red blood cells, for which concentrations inhibiting 50% of macrophages (CC50) and red blood cells (RBC50) were determined. Briefly, murine cells (5 × 10^5) or a 5% human red blood cells suspension were incubated in the presence of malvidin (0 to 301.84 µM) or echioidinin (0 to 356.76 µM) AmpB (0 to 10.82 µM) was used as control. Cells were incubated in RPMI 1640 medium for 48 h (murine macrophages) or 1 h (red blood cells) at 37 °C in 5% CO2. Macrophage viability was assessed using the MTT method. The red blood cell suspension was centrifuged at 1000× g for 10 min at 4 °C, after which the percentage of cell lysis was evaluated spectrophotometrically at 570 nm. The hemolysis was determined by replacing the natural products with an equal volume of phosphate-buffered saline with a pH of 7.4 (PBS—negative control) or distilled water (positive control). CC50 and RBC50 values were calculated by sigmoidal regression of dose–response curves in Microsoft Excel software (version 10.0). SI was calculated as the ratio between CC50 and IC50 values.

[6] = tested on: L. infantum axenic amastigotes; assay: In vitro antileishmanial activity, axenic amastigotes (MTT); details: for Selectivity Index (SI) Axenic amastigotes L. infantum: ratio between CC50 (macrophages) and IC50
Experimental: (§2) L. amazonensis (IFLA/BR/1967/PH-8), L. braziliensis (MHOM/BR/1975/M2903), and L. infantum (MHOM/BR/1970/BH46) were used as parasites. Stationary promastigotes were grown at a 24 °C in complete Schneider’s medium (Sigma-Aldrich, St. Louis, MO, USA), which was composed of medium plus 20% (v/v) heat-inactivated fetal bovine serum (FBS; Sigma-Aldrich, USA) and 20 mM L-glutamine with a pH of 7.4 [139]. To obtain the axenic amastigotes, 10^9 stationary promastigotes were washed three times in sterile phosphate-buffered saline (PBS 1X and incubated in 5 mL FBS for 48 h (L. amazonensis and L. braziliensis) and 72 h (L. infantum), respectively, at 37 °C. Parasites were washed in cold PBS 1x, and their morphology was evaluated after staining using the Giemsa method in an optical microscope, as previously described.
(§3) AmpB (0 to 10.8 µM; Sigma-Aldrich, USA) was used as control. Cell viability was assessed through 3-(4.5-dimethylthiazol-2-yl)-2.5-diphenyl tetrazolium bromide (Sigma-Aldrich, USA) method. Optical density (OD) values were measured in a microplate spectrophotometer (Molecular Devices, Spectra Max Plus, San Jose, CA, USA) at 570 nm. IC50 values were calculated by sigmoidal regression of dose–response curves in Microsoft Excel software (version 10.0). Two-tailed Student’s t-tests (p < 0.05) were used to compare IC50 values between malvidin and echioidinin, assessing significant differences in inhibitory activity.

[7] = tested on: L. amazonensis axenic amastigotes; assay: as above
Experimental: as §2, §3

[8] = tested on: L. braziliensis axenic amastigotes; assay: as above
Experimental: as §2, §3

[9] = tested on: L. infantum stationary promastigotes; assay: In vitro antileishmanial activity, stationary promastigotes (MTT)
Experimental: as §2, §3

[10] = tested on: L. braziliensis stationary promastigotes; assay: as above
Experimental: as §2, §3

[11] = tested on: L. amazonensis stationary promastigotes; assay: as above
Experimental: as §2, §3

[12] = ratio between CC50 (macrophages) and IC50

SMILES: COc1cc(-c2[o+]c3cc(O)cc(O)c3cc2O)cc(OC)c1O [Malvidin, malvidin]
- CC50 at 48 h [1]: 2.92 ± 0.08 mM
- Infection After Treatment (%) ([2]; 30.18 µM): 75.60%
- Infectiveness Reduction (%) ([2]; 30.18 µM): 18.09%
- Number of Amastigotes per Macrophage ([2]; 30.18 µM): 3.30
- Infection After Treatment (%) ([2]; 60.37 µM): 61.10%
- Infectiveness Reduction (%) ([2]; 60.37 µM): 33.80%
- Number of Amastigotes per Macrophage ([2]; 60.37 µM): 2.80
- Infection After Treatment (%) ([2]; 120.74 µM): 59.30%
- Infectiveness Reduction (%) ([2]; 120.74 µM): 35.75%
- Number of Amastigotes per Macrophage ([2]; 120.74 µM): 3.80
- Infection After Treatment (%) ([3]; 30.18 µM): 61.20%
- Infectiveness Reduction (%) ([3]; 30.18 µM): 17.85%
- Number of Amastigotes per Macrophage ([3]; 30.18 µM): 4.70
- Infection After Treatment (%) ([3]; 60.37 µM): 55.60%
- Infectiveness Reduction (%) ([3]; 60.37 µM): 25.37%
- Number of Amastigotes per Macrophage ([3]; 60.37 µM): 3.70
- Infection After Treatment (%) ([3]; 120.74 µM): 49.80%
- Infectiveness Reduction (%) ([3]; 120.74 µM): 33.15%
- Number of Amastigotes per Macrophage ([3]; 120.74 µM): 2.70
- Infection After Treatment (%) ([4]; 30.18 µM): 52.10%
- Infectiveness Reduction (%) ([4]; 30.18 µM): 24.16%
- Number of Amastigotes per Macrophage ([4]; 30.18 µM): 4.40
- Infection After Treatment (%) ([4]; 60.37 µM): 48.70%
- Infectiveness Reduction (%) ([4]; 60.37 µM): 29.11%
- Number of Amastigotes per Macrophage ([4]; 60.37 µM): 5.40
- Infection After Treatment (%) ([4]; 120.74 µM): 39.80%
- Infectiveness Reduction (%) ([4]; 120.74 µM): 42.07%
- Number of Amastigotes per Macrophage ([4]; 120.74 µM): 3.30
- RBC50 [5]: 3120.13 ± 107 µM
- IC50 ([6]; Leishmania infantum, 48 h, read-out: IC50 (µM) Axenic amastigotes L. infantum): 174 ± 19 µM
- Selectivity Index (SI) Axenic amastigotes L. infantum [6]: 16.70
- Selectivity Index (SI) Axenic amastigotes L. infantum ([6]; listed as malvidin): 14.70
- IC50 ([7]; Leishmania amazonensis, 48 h, read-out: IC50 (µM) Axenic amastigotes L. amazonensis): 258 ± 17 µM
- Selectivity Index (SI) Axenic amastigotes L. amazonensis [7, 12]: 11.30
- IC50 ([8]; Leishmania braziliensis, 48 h, read-out: IC50 (µM) Axenic amastigotes L. braziliensis): 227.9 ± 1 µM
- Selectivity Index (SI) Axenic amastigotes L. braziliensis [8, 12]: 12.70
- IC50 ([9]; Leishmania infantum, 48 h, read-out: IC50 (µM) Stationary Promastigotes L. infantum): 141 ± 26 µM
- Selectivity Index (SI) Stationary Promastigotes L. infantum [9, 12]: 20.70
- IC50 ([10]; Leishmania braziliensis, 48 h, read-out: IC50 (µM) Stationary Promastigotes L. braziliensis): 164 ± 19 µM
- Selectivity Index (SI) Stationary Promastigotes L. braziliensis [10, 12]: 17.60
- IC50 ([11]; Leishmania amazonensis, 48 h, read-out: IC50 (µM) Stationary Promastigotes L. amazonensis): 198 ± 17 µM
- Selectivity Index (SI) Stationary Promastigotes L. amazonensis [11, 12]: 14.70
